# Where two headings read alike, the source gives them in different places.
# Experiments:
# [1] = Optimum concentration (substance data tables; stabilizing effect)
# Source text: With respect to the stabilizing effect of optically active DIP it is most important that the substance is present in the form of potassium salt.
# [2] = Solubility in water; type: physicochemical
# [3] = Chemical, physical, pH and light stability; type: physicochemical
# [4] = tested on: proteins; assay: Protection against thermally induced denaturation of proteins; type: biochemical
# Source text: Little is known at the present time about the effect of DIP in general. This mainly due to the fact that only very little of this compound is available.
# [5] = Water binding capability; type: physicochemical
# Source text: Moreover, the compound is thus of interest for the regulation and balancing of the skin's moisture characteristics. This is at least of additional advantage when the compound is used as a cosmetic agent.
# [6] = Biocompatibility / allergenic potential
# [7] = tested on: model proteins; assay: Protection of model proteins; type: biochemical; conditions: protecting model proteins
# Protocol: Application related examinations were conducted with di-glycerol phosphate (DGP) aimed at protecting model proteins. As a penetration intensifier di-glycerol phosphate moreover ensures that these macro-molecules are also transported through several skin layers until they have reached their target destination.
SMILES,Optimum concentration [1] [mM],solubility in water [2],chemical and physical stability [3],chemical and physical stability ([3]; listed as di-myo-inositol phosphate),protective effect in respect of the thermally induced denaturation of proteins ([4]; first experiments),protective effect in comparison with other compatible solutes ([4]; thermally induced denaturation of proteins),capability of binding water [5],biocompatibility [6],protective potential compared with glycerine [7]
"O=P(O)(O[C@@H]1[C@H](O)[C@H](O)[C@@H](O)[C@H](O)[C@H]1O)O[C@@H]1[C@@H](O)[C@H](O)[C@@H](O)[C@H](O)[C@@H]1O [DIP, di-myo-inositol phosphate]",250 to 400,Excellent,High,great stability,excellent,far and decidedly better,highly capable of binding water,,
"O=P(O)(OCC(O)CO)OCC(O)CO (stereo not shown) [DGP, di-glycerol phosphate]",100 to 200,Excellent,High,,,,highly capable of binding water,High,by far better protective potential

# Reference: US20040028631A1, “Cosmetic formulations” (priority 2000, published 2004)
